According to PubChem BioAssay AID328 (DTP/NCI, 2004):
Where “and” joins values, the source holds several entries; their conditions need not be identical. Equal values may be shown once. Inconclusive results and toxic doses are left out.

Tested on: BDF1 mice, P388 leukemia ip, median survival T/C
Experiment: NCI In Vivo Anticancer Drug Screen. Data for tumor model P388 Leukemia (intraperitoneal) in B6D2F1 (BDF1) mice
Details: endpoint: median survival time, higher = longer survival
Summary of the method: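 Survival ratio, drug arm over vehicle arm, in mice with a transplanted tumour.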

[1] = dose: 3.0 mg/kg/injection, schedule: Q01DX009 (ip), vehicle: saline with Tween-80
[2] = dose: 100.0 mg/kg/injection, schedule: Q04DX003 (ip), vehicle: saline
[3] = dose: 200.0 mg/kg/injection, schedule: Q04DX003 (ip), vehicle: saline
[4] = dose: 400.0 mg/kg/injection, schedule: Q04DX003 (ip), vehicle: saline
[5] = dose: 100.0 mg/kg/injection, schedule: Q04DX003 (ip), vehicle: Klucel (hydroxypropylcellulose) (HPC)
[6] = dose: 200.0 mg/kg/injection, schedule: Q04DX003 (ip), vehicle: Klucel (hydroxypropylcellulose) (HPC)
[7] = dose: 400.0 mg/kg/injection, schedule: Q04DX003 (ip), vehicle: Klucel (hydroxypropylcellulose) (HPC)
[8] = dose: 25.0 mg/kg/injection, schedule: Q04DX003 (ip), vehicle: saline with Tween-80
[9] = dose: 100.0 mg/kg/injection, schedule: Q01DX001 (ip), vehicle: Klucel (hydroxypropylcellulose) (HPC)
[10] = dose: 12.5 mg/kg/injection, schedule: Q01DX009 (ip), vehicle: Klucel (hydroxypropylcellulose) (HPC)
[11] = dose: 25.0 mg/kg/injection, schedule: Q01DX009 (ip), vehicle: Klucel (hydroxypropylcellulose) (HPC)

CS(=O)(=O)Nc1ccc(Nc2c3ccccc3nc3cc([N+](=O)[O-])ccc23)cc1
T/C (dose: 0.09 mg/kg/injection, schedule: Q04DX003 (ip), vehicle: saline with Tween-80): 91 % of control
T/C (dose: 0.18 mg/kg/injection, schedule: Q04DX003 (ip), vehicle: saline with Tween-80): 100 % of control
T/C (dose: 0.75 mg/kg/injection, schedule: Q01DX009 (ip), vehicle: saline with Tween-80): 169 % of control
T/C (dose: 1.5 mg/kg/injection, schedule: Q01DX009 (ip), vehicle: saline with Tween-80): 185 % of control
T/C (dose: 1.5 mg/kg/injection, schedule: Q04DX003 (ip), vehicle: saline with Tween-80): 150 % of control
T/C [1]: 235 % of control
T/C (dose: 3.0 mg/kg/injection, schedule: Q04DX003 (ip), vehicle: saline with Tween-80): 162 % of control
T/C (dose: 6.0 mg/kg/injection, schedule: Q04DX003 (ip), vehicle: saline with Tween-80): 252 % of control and 183 % of control and 200 % of control
T/C (dose: 9.0 mg/kg/injection, schedule: Q04DX003 (ip), vehicle: saline with Tween-80): 285 % of control and 204 % of control
T/C (dose: 14.0 mg/kg/injection, schedule: Q04DX003 (ip), vehicle: saline with Tween-80): 250 % of control and 285 % of control
T/C (dose: 21.0 mg/kg/injection, schedule: Q04DX003 (ip), vehicle: saline with Tween-80): 250 % of control and 272 % of control and 157 % of control

CC(=O)CC(=O)NCCNCCNC(=O)CC(C)=O
T/C [2]: 100 % of control
T/C [3]: 114 % of control
T/C [4]: 100 % of control

CN(C)c1cc(F)c(C=O)cc1[N+](=O)[O-]
T/C [2]: 95 % of control
T/C [3]: 100 % of control
T/C [4]: 104 % of control

COC(=O)c1ccc(C(=O)OC)c(=O)[nH]1
T/C (dose: 100.0 mg/kg/injection, schedule: Q01DX009 (ip), vehicle: Klucel (hydroxypropylcellulose) (HPC)): 100 % of control
T/C [5]: 104 % of control
T/C (dose: 200.0 mg/kg/injection, schedule: Q01DX009 (ip), vehicle: Klucel (hydroxypropylcellulose) (HPC)): 95 % of control
T/C [6]: 104 % of control
T/C (dose: 400.0 mg/kg/injection, schedule: Q01DX009 (ip), vehicle: Klucel (hydroxypropylcellulose) (HPC)): 91 % of control
T/C [7]: 104 % of control

CN=C(N)c1ccc(N=C(N)c2ccc(N=C(N)c3ccc(NC(=O)Nc4cccc(NC(=O)Nc5ccc(C(N)=Nc6ccc(C(N)=Nc7ccc(C(N)=NC)cc7)cc6)cc5)c4)cc3)cc2)cc1
T/C (dose: 0.8 mg/kg/injection, schedule: Q01DX009 (ip), vehicle: saline with Tween-80): 119 % of control
T/C [1]: 162 % of control
T/C (dose: 4.5 mg/kg/injection, schedule: Q04DX003 (ip), vehicle: saline with Tween-80): 150 % of control
T/C (dose: 5.0 mg/kg/injection, schedule: Q01DX009 (ip), vehicle: saline with Tween-80): 175 % of control and 195 % of control
T/C (dose: 7.0 mg/kg/injection, schedule: Q04DX003 (ip), vehicle: saline with Tween-80): 150 % of control
T/C (dose: 8.0 mg/kg/injection, schedule: Q01DX009 (ip), vehicle: saline with Tween-80): 212 % of control
T/C (dose: 11.0 mg/kg/injection, schedule: Q04DX003 (ip), vehicle: saline with Tween-80): 154 % of control
T/C (dose: 12.0 mg/kg/injection, schedule: Q01DX009 (ip), vehicle: saline with Tween-80): 168 % of control and 170 % of control
T/C (dose: 17.0 mg/kg/injection, schedule: Q04DX003 (ip), vehicle: saline with Tween-80): 170 % of control and 179 % of control
T/C (dose: 18.0 mg/kg/injection, schedule: Q01DX009 (ip), vehicle: saline with Tween-80): 240 % of control and 192 % of control
T/C [8]: 200 % of control
T/C (dose: 27.0 mg/kg/injection, schedule: Q01DX009 (ip), vehicle: saline with Tween-80): 200 % of control
T/C (dose: 37.0 mg/kg/injection, schedule: Q01DX009 (ip), vehicle: saline with Tween-80): 100 % of control
T/C (dose: 37.0 mg/kg/injection, schedule: Q04DX003 (ip), vehicle: saline with Tween-80): 166 % of control and 191 % of control
T/C (dose: 37.5 mg/kg/injection, schedule: Q04DX003 (ip), vehicle: saline with Tween-80): 181 % of control
T/C (dose: 55.0 mg/kg/injection, schedule: Q04DX003 (ip), vehicle: saline with Tween-80): 158 % of control and 195 % of control

CCCCCCCCCCSCCSCCSCCCCCCCCCC
T/C (dose: 25.0 mg/kg/injection, schedule: Q01DX001 (ip), vehicle: Klucel (hydroxypropylcellulose) (HPC)): 100 % of control
T/C (dose: 50.0 mg/kg/injection, schedule: Q01DX001 (ip), vehicle: Klucel (hydroxypropylcellulose) (HPC)): 100 % of control
T/C [9]: 100 % of control

CCOc1ccc(/C=N\N=C\c2ccc(OCC)cc2)cc1
T/C [10]: 100 % of control
T/C [11]: 96 % of control
T/C [5]: 109 % of control
T/C [6]: 90 % of control
T/C [7]: 90 % of control

CC1CCCC(CN=Cc2cc([N+](=O)[O-])ccc2O)[N-]1.CC1CCCC(CN=Cc2cc([N+](=O)[O-])ccc2O)[N-]1.[Ni+2] (configuration not stated)
T/C (dose: 12.5 mg/kg/injection, schedule: Q04DX003 (ip), vehicle: saline with Tween-80): 100 % of control
T/C [8]: 100 % of control
T/C (dose: 50.0 mg/kg/injection, schedule: Q04DX003 (ip), vehicle: saline with Tween-80): 100 % of control

CC1(C)OB(C(B2OC(C)(C)C(C)(C)O2)=C(CCl)CCl)OC1(C)C
T/C (dose: 25.0 mg/kg/injection, schedule: Q01DX001 (ip), vehicle: saline sonified): 86 % of control
T/C (dose: 50.0 mg/kg/injection, schedule: Q01DX001 (ip), vehicle: saline sonified): 95 % of control
T/C (dose: 100.0 mg/kg/injection, schedule: Q01DX001 (ip), vehicle: saline sonified): 95 % of control

FC(F)(F)/C([S-])=C(/[S-])C(F)(F)F.FC(F)(F)/C([S-])=C(/[S-])C(F)(F)F.FC(F)(F)/C([S-])=C(/[S-])C(F)(F)F.FC(F)(F)/C([S-])=C(/[S-])C(F)(F)F.[Fe+3].[Fe+3]
T/C (dose: 50.0 mg/kg/injection, schedule: Q01DX001 (ip), vehicle: saline with Tween-80): 100 % of control
T/C (dose: 100.0 mg/kg/injection, schedule: Q01DX001 (ip), vehicle: saline with Tween-80): 104 % of control
T/C (dose: 200.0 mg/kg/injection, schedule: Q01DX001 (ip), vehicle: saline with Tween-80): 104 % of control

O=[N+]([O-])c1ccc(C(F)(F)F)cc1
T/C (dose: 25.0 mg/kg/injection, schedule: Q01DX009 (ip), vehicle: other): 109 % of control
T/C (dose: 50.0 mg/kg/injection, schedule: Q01DX009 (ip), vehicle: other): 104 % of control
T/C (dose: 50.0 mg/kg/injection, schedule: Q04DX003 (ip), vehicle: other): 95 % of control
T/C (dose: 100.0 mg/kg/injection, schedule: Q01DX009 (ip), vehicle: other): 113 % of control
T/C (dose: 100.0 mg/kg/injection, schedule: Q04DX003 (ip), vehicle: other): 100 % of control
T/C (dose: 200.0 mg/kg/injection, schedule: Q04DX003 (ip), vehicle: other): 100 % of control

Cc1ccc(N2CCN(CCCN3CCN(c4ccc(Cl)cc4)CC3)CC2)cc1
T/C (dose: 50.0 mg/kg/injection, schedule: Q04DX003 (ip), vehicle: saline sonified): 100 % of control
T/C (dose: 100.0 mg/kg/injection, schedule: Q04DX003 (ip), vehicle: saline sonified): 95 % of control
T/C (dose: 200.0 mg/kg/injection, schedule: Q04DX003 (ip), vehicle: saline sonified): 95 % of control

O=[N+]([O-])c1ccc(/C=C/C=C\c2cccc(S(=O)(=O)F)c2)c(Cl)c1
T/C [9]: 90 % of control and 104 % of control
T/C (dose: 100.0 mg/kg/injection, schedule: Q01DX009 (ip), vehicle: acetone): 112 % of control
T/C (dose: 200.0 mg/kg/injection, schedule: Q01DX001 (ip), vehicle: Klucel (hydroxypropylcellulose) (HPC)): 93 % of control and 100 % of control
T/C (dose: 200.0 mg/kg/injection, schedule: Q01DX009 (ip), vehicle: acetone): 108 % of control
T/C (dose: 400.0 mg/kg/injection, schedule: Q01DX001 (ip), vehicle: Klucel (hydroxypropylcellulose) (HPC)): 100 % of control and 106 % of control
T/C (dose: 400.0 mg/kg/injection, schedule: Q01DX009 (ip), vehicle: acetone): 95 % of control

NNC(=O)c1c[nH]c2ccccc2c1=O
T/C [10]: 104 % of control
T/C [11]: 104 % of control
T/C (dose: 50.0 mg/kg/injection, schedule: Q01DX009 (ip), vehicle: Klucel (hydroxypropylcellulose) (HPC)): 91 % of control
T/C (dose: 75.0 mg/kg/injection, schedule: Q01DX009 (ip), vehicle: Klucel (hydroxypropylcellulose) (HPC)): 108 % of control
T/C (dose: 115.0 mg/kg/injection, schedule: Q01DX009 (ip), vehicle: Klucel (hydroxypropylcellulose) (HPC)): 91 % of control
T/C (dose: 170.0 mg/kg/injection, schedule: Q01DX009 (ip), vehicle: Klucel (hydroxypropylcellulose) (HPC)): 95 % of control
